Counter-ions that a name gives are not always drawn. Like-named read-outs stand apart in the source and are kept apart here.
System: murine neural precursor cells (neurosphere cultures)
Experiment: HTS of LOPAC library against secondary neurosphere cultures, MTT proliferation assay at 3 μM, day 7 (z score, P value)
Type: cell-based, mouse
[1] = LOPAC primary screen, neurosphere MTT proliferation, 3 μM, day 7
[2] = yes/no: significantly inhibited neurosphere proliferation (P<0.01) in primary screen
[3] = LOPAC library screen, 3 μM, MTT, neurosphere cultures
[4] = LOPAC screen, neurosphere MTT proliferation, 3 μM, day 7
[5] = yes = significantly inhibited neurosphere proliferation (P<0.01) in the primary screen
[6] = primary LOPAC screen, 3 μM, MTT, neurosphere proliferation
[7] = yes/no: significantly inhibited neurosphere proliferation in the primary screen
[8] = LOPAC library screen at 3 μM, secondary neurosphere cultures, MTT
[9] = yes/no: significantly inhibited neurosphere proliferation in primary screen
[10] = yes/no: significantly inhibited neurosphere proliferation (P<0.01) in the primary screen
[11] = LOPAC library screen at 3 μM, MTT, secondary neurosphere cultures, screened in singlets
[12] = LOPAC library screen, 3 μM, MTT, secondary neurosphere cultures, day 7

With `C[C@H](N)CN1CCc2ccc(Br)cc21.C[C@H](N)CN1CCc2ccc(Br)cc21.O=C(O)/C=C/C(=O)O` [VER-3323 hemifumarate salt] the “Z Score” value was −0.7614, the Z score [1] was −0.761 and the Activity [2] was “no”.

With `CNCCCN1c2ccccc2CCc2ccccc21` [Desipramine hydrochloride] the “Z Score” value [3] was 0.1226, the Z score [4] was 0.123 and the Activity [2] was “no”.

In the case of `O=C(OCCN1CCCCC1)c1c[nH]c2ccccc12` [SB 203186], the “Z Score” value is reported as 0.9365, the Z score [4] is reported as 0.937 and the Activity [2] is reported as “no”.

In the case of `O=c1onc2n1-c1cc(Br)ccc1OC2` [NS 2028], the “Z Score” value is reported as −2.684, the Z score [1] is reported as −2.684 and the Activity [5] is reported as “yes”.

`Cl.Cn1ccc2cc(NC(=O)Nc3cccnc3)ccc21` [SB 200646 hydrochloride] was tested, and the “Z Score” value was 2.437, the Z score [6] was 2.437 and the Activity [7] was “no”.

In the case of `Cl.NCCc1ccc(O)c(O)c1` [Dopamine hydrochloride], the Activity is reported as “no”, the “Z Score” value is reported as 1.352 and the Z score is reported as 1.352.

With `COCCc1ccc(OCC(O)CNC(C)C)cc1.O=C(O)C(O)C(O)C(=O)O` (racemic) [(±)-Metoprolol (+)-tartate] the Z score [1] was −0.269 and the Activity [5] was “no”.

In the case of `CNC[C@H](O)c1ccc(O)c(O)c1.O=C(O)C(O)C(O)C(=O)O` [(−)-Epinephrine bitartrate], the “Z Score” value [8] is reported as −0.5304, the Z score [1] is reported as −0.530 and the Activity [2] is reported as “no”.

`C[C@]12C=CC(=O)C=C1CC[C@H]1[C@@H]3C[C@@H](O)[C@](O)(C(=O)CO)[C@@]3(C)C[C@H](O)[C@@]12F` [Triamcinolone] was tested, and the Activity was “no”, the “Z Score” value [8] was −0.184 and the Z score [1] was −0.184.

In the case of `Cl.Cl.NCCSSCCN` [Cystamine dihydrochloride], the “Z Score” value is reported as 2.23, the Z score [4] is reported as 2.230 and the Activity [2] is reported as “no”.

In the case of `O=c1[nH]c2ccccc2n1C1CCN(CCCC(c2ccc(F)cc2)c2ccc(F)cc2)CC1` [Pimozide], the “Z Score” value [8] is reported as −0.2323 and the Z score [1] is reported as −0.232.

With `N#Cc1c(-c2ccccc2)no[n+]1[O-]` [4-Phenyl-3-furoxancarbonitrile] the “Z Score” value (168 h, 3 µM) was 0.9313, the Z score (168 h, 3 µM) was 0.931 and the Activity [9] was “no”.

`CN(CCOc1ccc(C[C@H](Nc2ccccc2C(=O)c2ccccc2)C(=O)O)cc1)c1ccccn1` [GW1929] was tested, and the “Z Score” value was 0.01508, the Z score [1] was 0.015 and the Activity [2] was “no”.

With `CC(=O)OCC1=C(C(=O)[O-])N2C(=O)[C@@H](NC(=O)CCC[C@@H](N)C(=O)[O-])[C@H]2SC1.[Zn+2]` [Cephalosporin C zinc salt] the “Z Score” value was −3.309, the Z score [1] was −3.309 and the Activity [10] was “yes”.

In the case of `CC(C)CN(C)c1nc(N)c(C(=O)N=C(N)N)nc1Cl` [5-(N-Methyl-N-isobutyl)amiloride], the “Z Score” value [11] is reported as 1.871, the Z score [6] is reported as 1.871 and the Activity [7] is reported as “no”.

For `COCCOC(=O)C1=C(C)NC(C)=C(C(=O)OC(C)C)C1c1cccc([N+](=O)[O-])c1` (centres unmarked) [Nimodipine], the “Z Score” value [8] was −0.8542 and the Z score [1] was −0.854.

For `O=C(c1ccc2c(c1)OCCO2)N1CCCCC1` [CX 546], the “Z Score” value was −1.05, the Z score [4] was −1.050 and the Activity [2] was “no”.

For `OCc1cc(C(O)CNCCCCCCOCCCCc2ccccc2)ccc1O` (centres unmarked) [Salmeterol], the Activity was “no”, the “Z Score” value [8] was −0.4896 and the Z score [1] was −0.490.

In the case of `CC1CNCCN1S(=O)(=O)c1cccc2cnccc12.Cl.Cl` (centres unmarked) [H-7 dihydrochloride], the “Z Score” value is reported as 0.6813 and the Z score [1] is reported as 0.681.

For `CCCCCCN(CCCCCC)C(=O)Cc1c(-c2ccc(F)cc2)[nH]c2ccccc12` [N,N-Dihexyl-2-(4-fluorophenyl)indole-3-acetamide], the “Z Score” value (168 h, 3 µM) was 1.916, the Z score (168 h, 3 µM) was 1.916 and the Activity [2] was “no”.

For `CCN1CCC[C@H]1CNC(=O)c1c(O)c(Cl)cc(Cl)c1OC.O=C(O)C(O)C(O)C(=O)O` (racemic) [S(+)-Raclopride L-tartrate], the “Z Score” value [11] was 1.901, the Z score [1] was 1.901 and the Activity [10] was “no”.

`NC(CP(=O)(O)O)C(=O)O` (racemic) [(±)-2-Amino-3-phosphonopropionic acid] was tested, and the Z score [6] was 1.250 and the Activity [7] was “no”.

In the case of `COC1(C2=NCCN2)COc2ccccc2O1.Cl` (centres unmarked) [RX 821002 hydrochloride], the “Z Score” value is reported as 0.249, the Z score [1] is reported as 0.249 and the Activity [9] is reported as “no”.

`CC[C@@H]1C(=O)OC[C@@H]1Cc1cncn1C` [Pilocarpine nitrate] was tested, and the “Z Score” value (168 h, 3 µM) was −1.213, the Z score (168 h, 3 µM) was −1.213 and the Activity [5] was “no”.

For `CP(=O)(O)CCCN.Cl` [SKF 97541 hydrochloride], the “Z Score” value was −0.7355, the Z score [6] was −0.736 and the Activity [7] was “no”.

`CCCN(CCC)CCc1c[nH]c2ccc(C(N)=O)cc12.O=C(O)/C=C\C(=O)O` was tested, and the “Z Score” value was −1.73, the Z score [4] was −1.730 and the Activity [2] was “no”.

With `CC(C)=CCCC(C)=CCCC(C)=CCSc1ccccc1C(=O)O` [Farnesylthiosalicylic acid] the “Z Score” value [3] was 0.9061, the Z score [1] was 0.906 and the Activity [2] was “no”.

`COc1cc2c(CCNC(C)=O)c[nH]c2cc1Cl` [6-Chloromelatonin] was tested, and the “Z Score” value [12] was −1.659, the Z score [4] was −1.659 and the Activity [2] was “no”.

With `CN1CCN(C2Cc3ccccc3Sc3ccc(Cl)cc32)CC1.O=C(O)/C=C\C(=O)O` (racemic) [(±)-Octoclothepin maleate] the Z score [1] was 1.473 and the Activity [10] was “no”.

For `OCCN(CCO)c1nc(N2CCCCC2)c2nc(N(CCO)CCO)nc(N3CCCCC3)c2n1` [Dipyridamole], the Activity was “no”, the “Z Score” value [8] was −0.7267 and the Z score [4] was −0.727.

For `N#Cc1cc2nc([O-])c([O-])nc2cc1[N+](=O)[O-].[Na+].[Na+]` [CNQX disodium], the “Z Score” value [12] was −1.904, the Z score [4] was −1.904 and the Activity [2] was “no”.

For `CNCCC(Oc1ccc(C(F)(F)F)cc1)c1ccccc1` (centres unmarked) [Fluoxetine hydrochloride], the Activity was “no”, the “Z Score” value [12] was −1.311 and the Z score [1] was −1.311.

In the case of Picrotoxin, the “Z Score” value is reported as 0.7771, the Z score [1] is reported as 0.777 and the Activity [9] is reported as “no”.

In the case of `CC(C)N(CCC(=O)c1ccc2ccccc2c1)Cc1ccccc1` [ZM 39923 hydrochloride], the “Z Score” value [3] is reported as 0.7457, the Z score [1] is reported as 0.746 and the Activity [5] is reported as “no”.

`CCn1nc(C(=O)O)c(=O)c2cc3c(cc21)OCO3` [Cinoxacin] was tested, and the “Z Score” value [8] was −1.095, the Z score [4] was −1.095 and the Activity [2] was “no”.

For `CN1[C@@H]2CC[C@H]1CC(OC(=O)c1c[nH]c3ccccc13)C2.Cl` (some centres unmarked) [3-Tropanyl-indole-3-carboxylate hydrochloride], the “Z Score” value was −1.528, the Z score [6] was −1.528 and the Activity [7] was “no”.

For Tyrphostin AG 808, the “Z Score” value [12] was −1.315, the Z score [6] was −1.315 and the Activity [7] was “no”.

With `COC(=O)[C@@H](N)CCCN=C(N)N[N+](=O)[O-].Cl` the “Z Score” value [12] was −1.411, the Z score [1] was −1.411 and the Activity [5] was “no”.

For `CN1C2CCC1CC(NC(=O)c1nn(C)c3ccccc13)C2.O=C(O)/C=C\C(=O)O` (centres unmarked) [LY-278,584 maleate], the “Z Score” value was −1.074, the Z score [1] was −1.074 and the Activity [5] was “no”.

For `Cl.Nc1c2c(nc3ccccc13)CCCC2` [9-Amino-1,2,3,4-tetrahydroacridine hydrochloride], the Activity was “no”, the “Z Score” value was −1.021 and the Z score was −1.021.

In the case of `Cl.FC(F)(F)c1cc(CO[C@H]2CCCN[C@H]2c2ccccc2)cc(C(F)(F)F)c1` [L-733,060 hydrochloride], the “Z Score” value is reported as −1.465, the Z score [1] is reported as −1.465 and the Activity [5] is reported as “no”.

In the case of `COc1ccc2c3c1O[C@H]1C(=O)CC[C@@]4(O)[C@@H](C2)N(CC2CC2)CC[C@]314.Cl` [(−)-3-Methoxynaltrexone hydrochloride], the “Z Score” value is reported as 0.5963, the Z score [1] is reported as 0.596 and the Activity [10] is reported as “no”.

`CCCN(CCC)C1Cc2cc(OC)c(OC)cc2C1.O=C(O)/C=C\C(=O)O` [U-99194A maleate] was tested, and the “Z Score” value was 1.255.

With `Cc1c(C)c2c(c(C)c1O)CCC(C)(CN1CCN(c3cc(N4CCCC4)nc(N4CCCC4)n3)CC1)O2.Cl.Cl` (centres unmarked) [U-83836 dihydrochloride] the “Z Score” value was 0.954, the Z score [1] was 0.954 and the Activity [10] was “no”.

For `O=C1NCN(c2ccccc2)C12CCN(CC1COc3ccccc3O1)CC2` (centres unmarked) [Spiroxatrine], the “Z Score” value [3] was 0.1219, the Z score [1] was 0.122 and the Activity [9] was “no”.

`Nc1ncnc2c1ncn2[C@@H]1O[C@H](CO)[C@@H](O)[C@H]1O` [Adenosine] was tested, and the “Z Score” value [8] was −0.2086, the Z score [6] was −0.209 and the Activity [7] was “no”.

`CCc1cccc(N(C)C(N)=Nc2cccc3ccccc23)c1` [CNS-1102] was tested, and the Activity was “yes”, the “Z Score” value [12] was −3.782 and the Z score [1] was −3.782.

For (S)-Propranolol hydrochloride, the “Z Score” value [8] was −0.5346, the Z score [1] was −0.535 and the Activity [9] was “no”.

For `COc1ccc2c(c1)c(CC(=O)O)c(C)n2C(=O)c1ccc(Cl)cc1` [Indomethacin], the “Z Score” value [8] was −0.3563, the Z score [1] was −0.356 and the Activity [10] was “no”.

`O=Nc1ccc2oc(=O)ccc2c1` [6-Nitroso-1,2-beazopyrone] was tested, and the “Z Score” value was 0.01132.

`C[N+]1(C)[C@@H]2C[C@@H](OC(=O)[C@H](CO)c3ccccc3)C[C@H]1[C@@H]1O[C@@H]12.[Br-]` [(−)-Scopolamine methyl bromide] was tested, and the “Z Score” value was −0.8468, the Z score [1] was −0.847 and the Activity [9] was “no”.

`Cc1cccc(C(=O)NCN2CCN(c3ccccc3C#N)CC2)c1.O=C(O)/C=C\C(=O)O` [PD 168,077 maleate] was tested, and the “Z Score” value was −1.516, the Z score [1] was −1.516 and the Activity [9] was “no”.

— patent US8058243B2, “Method for treating a brain cancer with ifenprodil” (HSC Research and Development Limited Partnership, priority 2006, dated 2011)
